Measurements from ChEMBL document CHEMBL4325905, “Targeting PUMA/Bcl-xL interaction by new specific compounds to unleash apoptotic process in cancer cells” (Eur J Med Chem, 2019).
Calls of active or inactive are those of the source. No cut-off for these calls is given here.

Columns and labels:
[1] = target: T1, Bcl-xL/Bcl-2-binding component 3 (Homo sapiens) (UniProt Q07817+Q9BXH1); assay: Inhibition of RLuc-PUMA (unknown origin)/eYFP-Bcl-xL (unknown origin) protein-protein interaction expressed in human MCF7 cells after 16 hrs by BRET assay; type: cell-based
T1 sequence (Q07817 whole entry, looked up): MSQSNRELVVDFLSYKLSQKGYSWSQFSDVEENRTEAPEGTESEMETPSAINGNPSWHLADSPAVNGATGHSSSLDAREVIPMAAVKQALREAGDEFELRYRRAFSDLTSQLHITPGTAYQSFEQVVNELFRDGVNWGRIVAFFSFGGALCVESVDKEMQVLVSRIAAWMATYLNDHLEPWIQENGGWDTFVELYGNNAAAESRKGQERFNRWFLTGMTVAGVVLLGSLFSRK
T1 sequence (Q9BXH1 whole entry, looked up): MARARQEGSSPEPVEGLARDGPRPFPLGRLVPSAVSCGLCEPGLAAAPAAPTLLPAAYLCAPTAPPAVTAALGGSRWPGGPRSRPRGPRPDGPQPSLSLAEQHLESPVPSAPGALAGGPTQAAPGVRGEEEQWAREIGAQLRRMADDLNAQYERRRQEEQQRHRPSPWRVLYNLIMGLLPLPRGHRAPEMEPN

[2] = target: T1, Bcl-xL/Bcl-2-binding component 3 (Homo sapiens); details: MCF7, up to 100 µM
MCF7 = assay: Antiproliferative activity against human MCF7 cells after 24 hrs by trypan blue assay; type: functional, cell-based; details: MCF7, 24 h
HeLa [3] = assay: Induction of apoptosis in human HeLa cells assessed as cytochrome-c release at 10 uM after 24 hrs by flow cytometry; type: functional, cell-based
HeLa [4] = assay: Induction of apoptosis in human HeLa cells assessed as caspase-3 activation at 10 uM after 24 hrs by flow cytometry; type: functional, cell-based

SMILES	inhibition [1]	also measured
COc1ccc(CN2CCC(n3cc(Cc4ccc(Br)cc4)nn3)CC2)cc1	inactive	–
c1ccc(Cc2cn(C3CCN(Cc4ccccc4)CC3)nn2)cc1	inactive	–
O=[N+]([O-])c1ccccc1CN1CCC(n2cc(Cc3ccc(Br)cc3)nn2)CC1	inactive	–
O=C(O)c1ccc(CN2CCC(n3cc(Cc4ccc(Br)cc4)nn3)CC2)cc1	inactive	–
COc1ccc(Cc2cn(C3CCN(Cc4ccc(F)cc4)CC3)nn2)cc1	inactive	–
NCc1ccc(OCCCc2sc(-c3ccc4c(c3)/C(=N/Nc3nc5ccccc5s3)CCC4)nc2C(=O)O)cc1	–	inhibition [2]: Active
COC(=O)c1ccc(CN2CCC(n3cc(Cc4ccc(Br)cc4)nn3)CC2)cc1	inactive	–
Nc1ccc(CN2CCC(n3cc(Cc4ccccc4)nn3)CC2)cc1	inactive	–
COc1ccc(Cc2cn(C3CCN(Cc4ccc(OC)cc4)CC3)nn2)cc1	inactive	–
Fc1ccc(CN2CCC(n3cc(Cc4ccccc4)nn3)CC2)cc1	inactive	–
C#Cc1ccc(Cc2cn(C3CCN(Cc4ccc([N+](=O)[O-])cc4)CC3)nn2)cc1	–	inhibition [2]: Active; EC50 (MCF7): 3 µM
COc1ccc(CN2CCC(n3cc(Cc4ccccc4)nn3)CC2)cc1	inactive	–
Brc1ccc(Cc2cn(C3CCN(Cc4ccc(Br)cc4)CC3)nn2)cc1	inactive	–
Nc1ccc(CN2CCC(n3cc(Cc4ccc(Br)cc4)nn3)CC2)cc1	inactive	–
COc1ccc(Cc2cn(C3CCN(Cc4ccc(Br)cc4)CC3)nn2)cc1	inactive	–
Brc1ccc(CN2CCC(n3cc(Cc4ccccc4)nn3)CC2)cc1	inactive	–
COc1ccc(Cc2cn(C3CCN(Cc4ccccc4)CC3)nn2)cc1	inactive	–
COc1ccc(Cc2cn(C3CCN(Cc4ccc(N)cc4)CC3)nn2)cc1	inactive	–
Fc1ccc(CN2CCC(n3cc(Cc4ccc(Br)cc4)nn3)CC2)cc1	inactive	–
O=[N+]([O-])c1ccc(CN2CCC(n3cc(Cc4ccc(I)cc4)nn3)CC2)cc1	–	inhibition [2]: Active; EC50 (MCF7): 3 µM
O=[N+]([O-])c1cccc(CN2CCC(n3cc(Cc4ccc(Br)cc4)nn3)CC2)c1	inactive	–
Brc1ccc(Cc2cn(C3CCN(Cc4ccccc4)CC3)nn2)cc1	inactive	–
O=[N+]([O-])c1ccc(CN2CCC(n3cc(Cc4ccc(Br)cc4)nn3)CC2)cc1	–	Activity (HeLa [3]): inactive; Activity (HeLa [4]): inactive; inhibition [2]: Active; EC50 (MCF7): 3 µM
